# Measured values from patent publication US10807982B2, “Bromodomain inhibitors” (CELGENE QUANTICEL RESEARCH, INC., priority 2015, dated 2020).
# How the values were obtained:
# BRD4(BD1) = BRD4(BD1) (Homo sapiens (Human), UniProt O60885); assay: In vitro enzyme inhibition assay (BRD4 AlphaScreen, H4-tetraacetyl peptide); type: binding; details: BRD4(BD1) 2 nM, peptide 15 nM
# How it was run: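 His-tagged BRD4(BD1), 2 nM, with 15 nM biotinylated H4K5/8/12/16(Ac) peptide in HEPES pH 7.3 buffer, 0.4% DMSO, 20 min RT with compound. Streptavidin donor and Ni-chelate acceptor beads (5 μg/mL) then equilibrated 2 h. AlphaScreen signal; IC50 by four-parameter fit.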
# [1] = test system: Raji, human Burkitts lymphoma cells; assay: Cell-MTS cellular proliferation assay, Raji; type: cell-based; details: Homo sapiens, 168 hr incubation
# How it was run: (§1)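 Cells seeded to reach ~90% confluence at 7 days (Raji 15,000, HL-60 5,000, NCI-H460 3,000 per well); 11-point compound dilution, 100 µM to 2.0 nM final, added 24 h after plating. Exposure 168 hr at 37 °C, 5% CO2; MTS read at OD490. IC50 from background-subtracted OD490 normalized to DMSO controls.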
# [2] = test system: HL-60, human proleukemia cells; assay: Cell-MTS cellular proliferation assay, HL-60; type: cell-based; details: Homo sapiens, HL-60 cells, 168 hr incubation
# How it was run: as §1
# [3] = test system: NCI-H460, human non-small cell lung cancer cells; assay: Cell-MTS cellular proliferation assay, NCI-H460; type: cell-based; details: Homo sapiens, 168 hr incubation
# How it was run: as §1
Structure (SMILES),IC50 (BRD4(BD1)),IC50 [1],IC50 [2],IC50 [3]
"Cc1cc(-c2cc3c(nc(C)n3Cc3ccc(F)cc3F)c(NS(C)(=O)=O)n2)cn(C)c1=O [Example 62, N-[1-[(2,4-difluorophenyl)methyl]-6-(1,5-dimethyl-6-oxopyridin-3-yl)-2-methylimidazo[4,5-c]pyridin-4-yl]methanesulfonamide]",≤ 0.5 µM,≤ 0.5 µM,≤ 0.5 µM,> 5 µM
"Cn1cc(-c2cc(NS(C)(=O)=O)c3ccn(Cc4ccccc4)c3c2)c2ccccc2c1=O [Example 17, N-[1-benzyl-6-(2-methyl-1-oxoisoquinolin-4-yl)indol-4-yl]methanesulfonamide]",≤ 0.5 µM,≤ 0.5 µM,≤ 0.5 µM,0.5 to 5 µM
"Cc1cc(-c2cc(NS(C)(=O)=O)c3nc(C)n(Cc4ccccc4)c3c2)cn(C)c1=O [Example 34, N-[1-benzyl-6-(1,5-dimethyl-6-oxopyridin-3-yl)-2-methylbenzimidazol-4-yl]methanesulfonamide]",≤ 0.5 µM,≤ 0.5 µM,≤ 0.5 µM,> 5 µM
"Cn1cc(-c2cc3c(cc2OCC2CC2)CCN3S(C)(=O)=O)c2ccccc2c1=O [Example 13, 4-[5-(cyclopropylmethoxy)-1-methylsulfonyl-2,3-dihydroindol-6-yl]-2-methylisoquinolin-1-one]",≤ 0.5 µM,≤ 0.5 µM,≤ 0.5 µM,0.5 to 5 µM
"Cc1cc(-c2cc(NS(C)(=O)=O)c3c(F)nn(CC4CC4)c3c2)cn(C)c1=O [Example 66, N-[1-(cyclopropylmethyl)-6-(1,5-dimethyl-6-oxopyridin-3-yl)-3-fluoroindazol-4-yl]methanesulfonamide]",≤ 0.5 µM,≤ 0.5 µM,≤ 0.5 µM,> 5 µM
"Cc1cc(-c2cc3c(S(C)(=O)=O)nn(C)c3cc2OCC2CC2)cn(C)c1=O [Example 58, 5-[6-(cyclopropylmethoxy)-1-methyl-3-methylsulfonylindazol-5-yl]-1,3-dimethylpyridin-2-one]",≤ 0.5 µM,≤ 0.5 µM,≤ 0.5 µM,> 5 µM
"CCS(=O)(=O)Nc1cc(-c2cc(C)c(=O)n(C)c2)cc2c1nc(C)n2Cc1cccc(F)c1 [Example 36, N-[6-(1,5-dimethyl-6-oxopyridin-3-yl)-1-[(3-fluorophenyl)methyl]-2-methylbenzimidazol-4-yl]ethanesulfonamide]",≤ 0.5 µM,≤ 0.5 µM,≤ 0.5 µM,≤ 0.5 µM
"COc1cc(-c2cc(NS(C)(=O)=O)c3nc(C(F)(F)F)n(CC4CC4)c3c2)cn(C)c1=O [Example 93, N-[1-(cyclopropylmethyl)-6-(5-methoxy-1-methyl-6-oxopyridin-3-yl)-2-(trifluoromethyl)benzimidazol-4-yl]methanesulfonamide]",≤ 0.5 µM,≤ 0.5 µM,≤ 0.5 µM,> 5 µM
"CCS(=O)(=O)Nc1cc(-c2cc(C)c(=O)n(C)c2)cc2c1cnn2Cc1ccc(F)cc1 [Example 43, N-[6-(1,5-dimethyl-6-oxopyridin-3-yl)-1-[(4-fluorophenyl)methyl]indazol-4-yl]ethanesulfonamide]",≤ 0.5 µM,≤ 0.5 µM,≤ 0.5 µM,≤ 0.5 µM
"Cc1cc(-c2cc(NS(=O)(=O)C(C)C)cc3nc(C4CC4)oc23)cn(C)c1=O [Example 51, N-[2-cyclopropyl-7-(1,5-dimethyl-6-oxopyridin-3-yl)-1,3-benzoxazol-5-yl]propane-2-sulfonamide]",≤ 0.5 µM,0.5 to 5 µM,≤ 0.5 µM,> 5 µM
"Cn1cc(-c2cc(NS(C)(=O)=O)cc3cc(C4CC4)oc23)c2ccccc2c1=O [Example 79, N-[2-cyclopropyl-7-(2-methyl-1-oxoisoquinolin-4-yl)-1-benzofuran-5-yl]methanesulfonamide]",≤ 0.5 µM,≤ 0.5 µM,≤ 0.5 µM,≤ 0.5 µM
"CCc1cc2cc(S(C)(=O)=O)cc(-c3cn(C)c(=O)c4ccccc34)c2o1 [4-(2-ethyl-5-(methylsulfonyl)benzofuran-7-yl)-2-methylisoquinolin-1(2H)-one, reference compound]",≤ 0.5 µM,≤ 0.5 µM,≤ 0.5 µM,0.5 to 5 µM
"CCS(=O)(=O)Nc1cc(-c2cn(C)c(=O)c3ccccc23)c2oc(C3CC3)nc2c1 [Example 48, N-[2-cyclopropyl-7-(2-methyl-1-oxoisoquinolin-4-yl)-1,3-benzoxazol-5-yl]ethanesulfonamide]",≤ 0.5 µM,≤ 0.5 µM,≤ 0.5 µM,≤ 0.5 µM

# Second part, the compound after the results:
IC50 (BRD4(BD1)),IC50 [1],IC50 [2],IC50 [3],Structure (SMILES)
≤ 0.5 µM,0.5 to 5 µM,≤ 0.5 µM,> 5 µM,"Cc1cc(-c2cc(S(C)(=O)=O)ccc2OCC2CC2)c2n(c1=O)CCC2 [Example 85, 8-[2-(cyclopropylmethoxy)-5-methylsulfonylphenyl]-6-methyl-2,3-dihydro-1H-indolizin-5-one]"
≤ 0.5 µM,> 5 µM,0.5 to 5 µM,> 5 µM,"Cc1cc(-c2cc(S(C)(=O)=O)c3nc(C)n(CC4CC4)c3c2)cn(C)c1=O [Example 71, 5-[3-(cyclopropylmethyl)-2-methyl-7-methylsulfonylbenzimidazol-5-yl]-1,3-dimethylpyridin-2-one]"
≤ 0.5 µM,≤ 0.5 µM,≤ 0.5 µM,> 5 µM,"COc1cc(-c2cc3c(S(C)(=O)=O)cccc3n2CCC2CC2)cn(C)c1=O [Example 91, 5-[1-(2-cyclopropylethyl)-4-methylsulfonylindol-2-yl]-3-methoxy-1-methylpyridin-2-one]"
0.5 to 5 µM,> 5 µM,0.5 to 5 µM,> 5 µM,"Cn1cc(-c2ccc3c(c2)S(=O)(=O)NC3)c2ccccc2c1=O [Example 2, 4-(1,1-dioxo-2,3-dihydro-1,2-benzothiazol-6-yl)-2-methylisoquinolin-1-one]"
≤ 0.5 µM,≤ 0.5 µM,≤ 0.5 µM,> 5 µM,"COc1cc(-c2cc3c(S(C)(=O)=O)nn(C)c3cc2OCC2CC2)cn(C)c1=O [Example 59, 5-[6-(cyclopropylmethoxy)-1-methyl-3-methylsulfonylindazol-5-yl]-3-methoxy-1-methylpyridin-2-one]"
≤ 0.5 µM,≤ 0.5 µM,≤ 0.5 µM,≤ 0.5 µM,"CCS(=O)(=O)Nc1cc(-c2cn(C)c(=O)c3ccccc23)c2oc(C3CC3)cc2c1 [Example 82, N-[2-cyclopropyl-7-(2-methyl-1-oxoisoquinolin-4-yl)-1-benzofuran-5-yl]ethanesulfonamide]"
≤ 0.5 µM,≤ 0.5 µM,≤ 0.5 µM,> 5 µM,"CCS(=O)(=O)Nc1cc(-c2cc(C)c(=O)n(C)c2)c2oc(C3CCCC3)nc2c1 [Example 52, N-[2-cyclopentyl-7-(1,5-dimethyl-6-oxopyridin-3-yl)-1,3-benzoxazol-5-yl]ethanesulfonamide]"
≤ 0.5 µM,≤ 0.5 µM,≤ 0.5 µM,0.5 to 5 µM,"Cn1cc(-c2cc(S(C)(=O)=O)cc3cc(-c4ccccc4)oc23)c2ccccc2c1=O [Example 26, 2-methyl-4-(5-methylsulfonyl-2-phenyl-1-benzofuran-7-yl)isoquinolin-1-one]"
≤ 0.5 µM,≤ 0.5 µM,≤ 0.5 µM,> 5 µM,"CCOc1nc2c(CS(C)(=O)=O)cc(-c3cc(OC)c(=O)n(C)c3)cc2n1CC1CC1 [Example 98, 5-[3-(cyclopropylmethyl)-2-ethoxy-7-(methylsulfonylmethyl)benzimidazol-5-yl]-3-methoxy-1-methylpyridin-2-one]"
≤ 0.5 µM,≤ 0.5 µM,≤ 0.5 µM,0.5 to 5 µM,"CCS(=O)(=O)Nc1cc(-c2cc(C)c(=O)n(C)c2)cc2c1ncn2Cc1cccc(F)c1 [Example 33, N-[6-(1,5-dimethyl-6-oxopyridin-3-yl)-1-[(3-fluorophenyl)methyl]benzimidazol-4-yl]ethanesulfonamide]"
≤ 0.5 µM,≤ 0.5 µM,≤ 0.5 µM,> 5 µM,"CCS(=O)(=O)Cc1cc(-c2cc(OC)c(=O)n(C)c2)c2oc(C3CC3)nc2c1 [Example 100, 5-[2-cyclopropyl-5-(ethylsulfonylmethyl)-1,3-benzoxazol-7-yl]-3-methoxy-1-methylpyridin-2-one]"
≤ 0.5 µM,≤ 0.5 µM,≤ 0.5 µM,0.5 to 5 µM,"CCS(=O)(=O)Nc1cc(-c2cc(C)c(=O)n(C)c2)cc2c1nnn2Cc1ccccc1 [Example 27, N-[1-benzyl-6-(1,5-dimethyl-6-oxopyridin-3-yl)benzotriazol-4-yl]ethanesulfonamide]"
≤ 0.5 µM,≤ 0.5 µM,≤ 0.5 µM,0.5 to 5 µM,"Cc1cc(-c2cc(NS(C)(=O)=O)c3nc(C)n(Cc4ccc(F)cc4)c3c2)cn(C)c1=O [Example 37, N-[6-(1,5-dimethyl-6-oxopyridin-3-yl)-1-[(4-fluorophenyl)methyl]-2-methylbenzimidazol-4-yl]methanesulfonamide]"
